The values below come from patent US6911443B2 (Bayer Aktiengesellschaft, priority 2000, dated 2005).

The structures appear in SMILES notation.

One assay addresses T1, human Syk (GST-Syk) (Homo sapiens, UniProt P43405).
T1 construct: A cDNA fragment encoding human Syk openreading frame was cloned; made in house; host or cells: Sf21 insect cells (baculovirus, transfer vector pAcG2T)
In words: Syk tyrosine kinase inhibitory assay. It is filed as biochemical. The note with it: Activity grade (IC50 class), in vitro; compounds as yielded by solid phase synthesis, purity about 40 to 90%. Summed up:
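Readout: streptavidin-captured biotin-AL peptide probed with europium-4G10 anti-phosphotyrosine, time-resolved fluorescence (ex 340/em 615 nm). Reaction ran 1 h at room temperature with 30 μM ATP, 3 μM peptide, 0.65 nM Sf21-expressed GST-Syk and 0.25% DMSO, pH 8.0.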
`CCSc1nc(-c2ccc(OC)c(OC(=O)N(C)C)c2)cc2nccn12` [Example 4-10] came in with an IC50 of 500 to 2000 nM.

The same assay, now with this note: Table 11; read-out: Activity grade.
For the compound `COc1ccc(-c2cc3nccn3c(Nc3ccccc3)n2)cc1OC(C)=O` [Example 12-17], the IC50 was below 500 nM.

Consider `COc1ccc(-c2cc3nccn3c(Nc3ccccc3)n2)cc1[N+](=O)[O-]` [Example 12-32], for which the IC50 was below 500 nM. For the compound `COc1ccc(-c2cc3nccn3c(Nc3cccc(N)n3)n2)cc1OC` [Example 12-29], the IC50 was below 500 nM. As for `COc1ccc(Nc2nc(-c3ccc(N(C)C)c(OC)c3)cc3nccn23)cc1` [Example 12-52], the IC50 was below 500 nM. Same read-out and setting: with `COc1ccc(Nc2nc(-c3ccc(OC)c(OC)c3)cc3ncnn23)cc1` [Example 12-15] the figure was below 500 nM; with `COc1cc(-c2cc3nccn3c(Nc3ccccc3)n2)ccc1NCCCN1CCN(C)CC1` [Example 12-39], below 500 nM.

With `COc1ccc(-c2cc3nccn3c(Nc3cc(OC)c(OC)c(OC)c3)n2)cc1OC` [Example 12-14], the IC50 is below 500 nM. On the same count and under the same terms, with `CCN(CC)CCOc1ccc(-c2cc3nccn3c(Nc3ccccc3)n2)cc1OC` [Example 12-35] the figure was 2000 to 10000 nM.

Staying with this assay, now noted: Table 13; read-out: Activity grade.
As to `COc1ccc(-c2cc3nccn3c(SCCc3cnccn3)n2)cc1OC` [Example 14-32], the IC50 is below 500 nM.

`COc1ccc(-c2cc3nccn3c(SC3CCCC3)n2)cc1OC` [Example 14-21]: the IC50 was below 500 nM. On the same count and under the same terms, with `COc1ccc(-c2cc3nccn3c(Oc3cccc(C)c3)n2)cc1OC` [Example 14-3] the figure was 500 to 2000 nM.

Still in this assay, the particulars now being: Table 14; read-out: Activity grade.
As to `COc1ccc(-c2cc3nccn3c(Sc3ccc(C(F)(F)F)cn3)n2)cc1OC` [Example 15-1], the IC50 is below 500 nM.

Still in this assay, the particulars now being: Table 16; read-out: Activity grade.
Consider `CCSc1nc(-c2ccc(N(C)CCCN3CCOCC3)c(OC)c2)cc2nccn12` [Example 17-17], for which the IC50 is below 500 nM. In the case of `CCSc1nc(-c2ccc(OC)c(NCCN(C)C)c2)cc2nccn12` [Example 17-8], the IC50 lay in the range of 500 to 2000 nM.

`CCSc1nc(-c2ccc(NCCCN(C)C)c(OC)c2)cc2nccn12` [Example 17-13]: the IC50 is below 500 nM.

Still in this assay, the particulars now being: Table 17; IC50 classes; read-out: Activity grade.
As to `CCSc1nc(-c2ccc(OC)c([N+](=O)[O-])c2)cc2nccn12` [Example 27], the IC50 is below 500 nM. Same read-out and setting: with `COc1ccc(-c2cc3nccn3c(-c3ccccc3)n2)cc1OC` [Example 34] the figure was 500 to 2000 nM; with `COc1ccc(-c2cc3nccn3c(Nc3ccccc3)n2)cc1NC(=O)CCC(=O)O` [Example 2], below 500 nM. Regarding `COc1ccc(-c2cc3nccn3c(Sc3ccc4c(c3)CCC(C(=O)O)C4)n2)cc1OC` (stereo not drawn) [Example 19], the IC50 was below 500 nM.

Take `COc1ccc(-c2cc3nccn3c(Nc3cc(N(C)C)ccc3C(N)=O)n2)cc1OC` [Example 13]: the IC50 is below 500 nM. Still for that read-out and setting: then `COc1ccc(-c2cc3nccn3c(Nc3ccccc3)n2)cc1N` [compound 1], with 500 to 2000 nM.

Staying with this assay, now noted: in vitro; compounds as yielded by solid phase synthesis, purity about 40 to 90%.
Turning to `COc1ccc(-c2cc3nccn3c(Sc3ccc(CC(=O)O)cc3)n2)cc1OC` [Example 13-19], the “Activity grade (IC50 class)” value is on record as “C-D”. Turning to `COc1ccc(-c2cc3nccn3c(N3CCN(C4CCCCC4)CC3)n2)cc1OC` [Example 9-48], the “Activity grade (IC50 class)” value was “C-D”. Still for that read-out and setting: then `COc1ccc(-c2cc3ncnn3c(Nc3ccc4ncccc4c3)n2)cc1OC` [Example 9-18], with “C-D”. The same measure, in the same setting: then `COc1ccc(-c2cc3nccn3c(N3CCN(C(c4ccc(F)cc4)c4ccc(F)cc4)CC3)n2)cc1OC` [Example 9-45], with “C-D”.

Still in this assay, the particulars now being: in vitro; compounds as yielded by solid phase synthesis, purity about 40 to 90%; read-out: Activity grade (IC50 class).
For `COc1ccc(-c2cc3nccn3c(Nc3ccc(CCCC(=O)O)cc3C(N)=O)n2)cc1OC` [Example 11-105], the IC50 is below 500 nM.

With `CCOc1ccc(-c2cc3nccn3c(SCC)n2)cc1OC` [Example 3-1], the IC50 was below 500 nM.

Take `COc1ccc(-c2cc3nccn3c(NCC(O)CO)n2)cc1OC` (stereo not drawn) [Example 9-4]: the IC50 is 500 to 2000 nM.

For the compound `CCN(CC)c1nc(-c2ccc(OC)c(OC)c2)cc2nccn12` [Example 9-56], the IC50 lay within 500 to 2000 nM. Still for that read-out and setting: with `COc1cc(-c2cc3nccn3c(Sc3ccc(CCC(=O)O)cc3)n2)ccc1OCCN1CCOCC1` [Example 13-28] the figure was below 500 nM. With `COc1ccc(-c2cc3nccn3c(N3CCN(c4ccccc4F)CC3)n2)cc1OC` [Example 9-47], the IC50 lay within 2000 to 10000 nM.

For the compound `COc1ccc(-c2cc3ncnn3c(Nc3ccc(CCC(=O)O)cc3C(N)=O)n2)cc1OC` [Example 11-101], the IC50 was below 500 nM. Still for that read-out and setting: with `COc1ccc(-c2cc3nccn3c(N3CCC(C#N)(c4ccccc4)CC3)n2)cc1OC` [Example 9-68] the figure was 2000 to 10000 nM; with `CCSc1nc(-c2ccc(OC)c(OCCCN3CCSCC3)c2)cc2nccn12` [Example 5-10], 500 to 2000 nM; with `CCSc1nc(-c2ccc(OCCCN3CCC(C(N)=O)CC3)c(OC)c2)cc2nccn12` [Example 5-13], below 500 nM. Regarding `COc1ccc(-c2cc3nccn3c(NCCN(C)C)n2)cc1OC` [Example 9-3], the IC50 is 2000 to 10000 nM. As for `COc1ccc(-c2cc3nccn3c(SCC3CC3)n2)cc1OC` [Example 9-7], the IC50 is below 500 nM.

Take `COc1ccc(-c2cc3nccn3c(N3CC[C@@H](NC(=O)C(F)(F)F)C3)n2)cc1OC` [Example 9-70]: the IC50 was 2000 to 10000 nM. As to `COc1ccc(Nc2nc(-c3ccc(OC)c(OC)c3)cc3nccn23)cc1O` [Example 11-92], the IC50 is below 500 nM. Same read-out and setting: with `CCSc1nc(-c2ccc(OC)c(OC)c2)cc2nc(C)cn12` [Example 1-8] the figure was below 500 nM. Take `COc1ccc(-c2cc3nccn3c(NC3CCC(C(=O)O)CC3)n2)cc1OC` (stereo not drawn) [Example 9-31]: the IC50 is 500 to 2000 nM. Still for that read-out and setting: then `CCSc1nc(-c2ccc(OCc3ccc(OC)cc3)c(OC)c2)cc2nccn12` [Example 3-3], with 500 to 2000 nM; and `COC(=O)c1cc(Br)ccc1Nc1nc(-c2ccc(OC)c(OC)c2)cc2nccn12` [Example 11-86], with below 500 nM.

For the compound `COc1ccc(Nc2nc(-c3ccc(OC)c(OC)c3)cc3nccn23)cc1F` [Example 11-100], the IC50 was below 500 nM. On the same count and under the same terms, with `CCNC(=O)Oc1ccc(-c2cc3nccn3c(SCC)n2)cc1OC` [Example 3-9] the figure was 500 to 2000 nM; with `COc1ccc(Nc2nc(-c3ccc(OC)c(OC)c3)cc3nccn23)c(OC)c1` [Example 11-65], below 500 nM; with `COc1ccc(-c2cc3nccn3c(Nc3ccc(F)c(F)c3)n2)cc1OC` [Example 11-57], below 500 nM. Turning to `COc1ccc(-c2cc3nccn3c(Nc3ccc(CCN4C(=O)c5ccccc5C4=O)cc3)n2)cc1OC` [Example 9-26], the IC50 lay in the range of 500 to 2000 nM. Still for that read-out and setting: with `CCSc1nc(-c2ccc(OC)cc2)cc2nccn12` [Example 1-5] the figure was 500 to 2000 nM; with `COc1ccc(-c2cc3nccn3c(N3CCN(c4ncccn4)CC3)n2)cc1OC` [Example 9-41], 500 to 2000 nM; with `COc1ccc(-c2cc3nccn3c(Nc3cccc(C)c3)n2)cc1OC` [Example 11-7], below 500 nM. Still for that read-out and setting: with `COc1ccc(-c2cc3nccn3c(Nc3ccc(S(=O)(=O)N4CCCC4)cc3)n2)cc1OC` [Example 11-115] the figure was below 500 nM; with `COc1ccc(-c2cc3nccn3c(Sc3nc4ccccc4s3)n2)cc1OC` [Example 13-11], below 500 nM. On to `COc1ccc(-c2cc3nccn3c(Nc3cc(N(C)C)ccc3C(N)=O)n2)cc1OC` [Example 13], for which the IC50 is below 500 nM. Turning to `COc1ccc(-c2cc3nccn3c(N3CCC(C)CC3)n2)cc1OC` [Example 9-62], the IC50 is 2000 to 10000 nM. In the case of `COc1ccc(-c2cc3nccn3c(Nc3cccc(S(N)(=O)=O)c3)n2)cc1OC` [Example 11-114], the IC50 was below 500 nM.

For `COc1ccc(-c2cc3nccn3c(Sc3ccc4c(c3)CNCC4)n2)cc1OC` [Example 13-14], the IC50 was below 500 nM.

Regarding `COc1ccc(-c2cc3nccn3c(Nc3ccc(OCCN4CCOCC4)cc3)n2)cc1OC` [Example 11-91], the IC50 is below 500 nM. Take `COc1ccc(-c2cc3nccn3c(Sc3ccc(CCCC(=O)O)cc3)n2)cc1OC` [Example 13-21]: the IC50 was in the range of 2000 to 10000 nM. Consider `CCSc1nc(-c2ccc(O)c(OC)c2)cc2nccn12` [material for Example 3, 4-(5-Ethylsulfanyl-imidazo[1,2-c]pyrimidin-7-yl)-2-methoxyphenol], for which the IC50 was below 500 nM.

For `COc1ccc(-c2cc3nccn3c(Nc3ccc(C)cc3)n2)cc1OC` [Example 11-9], the IC50 is below 500 nM. Same read-out and setting: with `COc1ccc(-c2cc3nccn3c(Nc3ccc(S(=O)(=O)N4CCOCC4)cc3)n2)cc1OC` [Example 11-116] the figure was below 500 nM; with `COc1ccc(-c2cc3nccn3c(Nc3ccccc3OC(F)(F)F)n2)cc1OC` [Example 11-10], 500 to 2000 nM; with `CCSc1nc(-c2ccc(OCC3CCCCO3)c(OC)c2)cc2nccn12` (stereo not drawn) [Example 3-4], below 500 nM. Same read-out and setting: then `COc1ccc(-c2cc3nccn3c(N3CCC(O)(c4ccc(Cl)cc4)CC3)n2)cc1OC` [Example 9-64], with 2000 to 10000 nM; and `COc1ccc(-c2cc3nccn3c(N(CCC#N)c3ccccc3)n2)cc1OC` [Example 11-48], with below 500 nM. Take `COc1ccc(-c2cc3nccn3c(N3CCc4ccccc43)n2)cc1OC` [Example 9-13]: the IC50 was 500 to 2000 nM.

In the case of `COc1ccc(-c2cc3nccn3c(Nc3ccc(N4CCOCC4)cc3)n2)cc1OC` [Example 11-32], the IC50 is below 500 nM. Regarding `CCSc1nc(-c2ccc(OC)c(OC)c2)cc2nc(C(=O)OC)cn12` [Example 1-1], the IC50 lay within 500 to 2000 nM. The same measure, in the same setting: with `COc1ccc(-c2cc3nccn3c(N3CCN(C(=O)c4ccco4)CC3)n2)cc1OC` [Example 9-46] the figure was 2000 to 10000 nM; with `COc1ccc(-c2cc3nccn3c(N3CCC4(CC3)OCCO4)n2)cc1OC` [Example 9-66], 2000 to 10000 nM.
